Measurements as given in patent US20020004495A1, “Methods for stimulating bone formation” (priority 1998, published 2002).

Assays:
[1] = system: ROS 17/2.8 rat osteosarcoma cells; assay: Intracellular cAMP in ROS 17/2.8 cells; type: cell-based
Experimental: (§1) RCT-1 and RCT-3 are clonal cell lines immortalized by SV-40 large T antigen from cells released from fetal rat calvair by a cmbination collagenase/hyaluronidase digestion. RCT-1 cells, derived from cells released during the first 10 minutes of digestion (fraction I), are cultured in RPMI 1640 medium (BRL) with 10% fetal bovine serum and 0.4 mg/ml G418 (BRL). […] RCT-3 cells, immortalized from osteoblast-enriched fraction III cells, are cultured in F-12 medium (BRL) with 5% Fetal bovine serum and 0.4 mg/ml G418. TRAB-11 cells are also immortalized by SV40 large T antigen from adult rat tibia and are cultured in RPMI 1640 medium with 10% FBS and 0.4 mg/ml G418. ROS 17/2.8 rat osteosarcoma cells are cultured in F-12 containing 5% FBS. Osteoblast-enriched (fraction III) primary fetal rat calvaria cells are obtained by collagenase/hyaluronidase digestion of calvariae of 19 day-old rat fetuses. See Rodan et al., Growth stimulation of rat calvaria osteoblastic cells by acidic FGF, Endocrinology, 121, 1919-1923 (1987), which is incorporated by reference herein in its entirety. Cells are released during 30-50 minutes digestion (fraction III) and are cultured in F-12 medium containing 5% FBS. […]

RCT-3 cells = assay: Intracellular cAMP in RCT-3 cells; type: cell-based, rat
Experimental: as §1

TRAB-11 cells = assay: Intracellular cAMP in TRAB-11 cells; type: cell-based, rat
Experimental: as §1

[2] = system: EP4 mRNA in RP-1 periosteal cells; assay: EP4 mRNA in RP-1 periosteal cells (Northern blot); type: cell-based, rat; details: 10^-6 M
Experimental: (§2) RP-1 periosteal cells are spontaneously immortalized from primary cultures of periosteal cells from tibae of 4-week old Sprague-Dawley rats and are cultured in DMEM (BRL, Gaithersburg, Md.) with 10% fetal bovine serum (JRH Biosciences, Lenexa, Kans.). […] Total RNA is extracted from the tibial metaphysis or diaphysis and calvaria using a guanidinium isothiocyanate-phenol-chloroform method after pulverizing frozen bone samples by a tissue homogenizer. See P. Chomczynski et al., Single-step method of RNA isolation by acid guanidium thiocyanate-phenol-chloroform extraction., Analyt Biochem, 162, 156-159 (1987), which is incorporated by reference herein in its entirety. RNA samples ([…]) are separated on 0.9% agarose/formaldehyde gels and transferred onto nylon membranes (Boehringer Mannheim, Germany). Membranes are prehybridized in Hybrisol I (Oncor, Gaithersburg, Md.) and 0.5 mg/ml sonicated salmon sperm DNA (Boehringer) at 42° C. for 3 hours and are hybridized at 42° C. with rat EP2 and mouse EP4 cDNA probes labeled with [^32P]-dCTP (Amersham, Buckinghamshire, UK) by random priming using the rediprime kit (Amersham). After hybridization, membranes are washed 4 times in 2×SSC+0.1% SDS at room temperature for a total of 1 hour and once with 0.2×SSC+0.1% SDS at 55° C. for 1 hour and then exposed to Kodak XAR 2 film at −70° C. using intensifying screens. […]

EP4 mRNA in RCT-3 cells = EP4 mRNA in RCT-3 cells (Northern blot); type: cell-based, rat
Experimental: RCT-1 and RCT-3 are clonal cell lines immortalized by SV-40 large T antigen from cells released from fetal rat calvair by a cmbination collagenase/hyaluronidase digestion. RCT-1 cells, derived from cells released during the first 10 minutes of digestion (fraction I), are cultured in RPMI 1640 medium (BRL) with 10% fetal bovine serum and 0.4 mg/ml G418 (BRL). […] RCT-3 cells, immortalized from osteoblast-enriched fraction III cells, are cultured in F-12 medium (BRL) with 5% Fetal bovine serum and 0.4 mg/ml G418. TRAB-11 cells are also immortalized by SV40 large T antigen from adult rat tibia and are cultured in RPMI 1640 medium with 10% FBS and 0.4 mg/ml G418. ROS 17/2.8 rat osteosarcoma cells are cultured in F-12 containing 5% FBS. Osteoblast-enriched (fraction III) primary fetal rat calvaria cells are obtained by collagenase/hyaluronidase digestion of calvariae of 19 day-old rat fetuses. See Rodan et al., Growth stimulation of rat calvaria osteoblastic cells by acidic FGF, Endocrinology, 121, 1919-1923 (1987), which is incorporated by reference herein in its entirety. Cells are released during 30-50 minutes digestion (fraction III) and are cultured in F-12 medium containing 5% FBS. Total RNA is extracted from the tibial metaphysis or diaphysis and calvaria using a guanidinium isothiocyanate-phenol-chloroform method after pulverizing frozen bone samples by a tissue homogenizer. […]

EP2 mRNA in RP-1 cells = EP2 mRNA in RP-1 cells (Northern blot); type: cell-based, rat
Experimental: as §2

[3] = system: EP4 mRNA in tibiae and calvariae; assay: EP4 mRNA in rat bone tissue after systemic administration (Northern blot); type: in vivo
Experimental: For mRNA localization experiments, 5-week old Sprague-Dawley rats (Charles River) are euthanized by CO2, their tibiae and calvariae are excised, cleaned of soft tissues and frozen immediately in liquid nitrogen. For EP4 regulation experiments, 6-week old rats are given a single injection of either vehicle (7% ethanol in sterile water) or an anabolic dose of PGE2 (Cayman Chemical, Ann Arbor, Mich.), 3-6 mg/kg in the same vehicle) intraperitoneally. Animals are euthanized at several time points post-injection and their tibiae and calvariae, as well as samples from lung and kidney tissues are frozen in liquid nitrogen. Total RNA is extracted from the tibial metaphysis or diaphysis and calvaria using a guanidinium isothiocyanate-phenol-chloroform method after pulverizing frozen bone samples by a tissue homogenizer. See P. Chomczynski et al., Single-step method of RNA isolation by acid guanidium thiocyanate-phenol-chloroform extraction., Analyt Biochem, 162, 156-159 (1987), which is incorporated by reference herein in its entirety. RNA samples ([…]) are separated on 0.9% agarose/formaldehyde gels and transferred onto nylon membranes (Boehringer Mannheim, Germany). Membranes are prehybridized in Hybrisol I (Oncor, Gaithersburg, Md.) and 0.5 mg/ml sonicated salmon sperm DNA (Boehringer) at 42° C. for 3 hours and are hybridized at 42° C. with rat EP2 and mouse EP4 cDNA probes labeled with [^32P]-dCTP (Amersham, Buckinghamshire, UK) by random priming using the rediprime kit (Amersham). After hybridization, membranes are washed 4 times in 2×SSC+0.1% SDS at room temperature for a total of 1 hour and once with 0.2×SSC+0.1% SDS at 55° C. for 1 hour and then exposed to Kodak XAR 2 film at −70° C. using intensifying screens. After developing the films, bound probes are removed twice with 0.1% SDS at 80° C. and membranes are hybridized with a human GAPDH (Glyceraldehyde 3-Phosphate Dehydrogenase) cDNA probe (purchased from Clontech, Palo Alto, Calif.) for loading control. To examine if PGE2 regulates EP4 mRNA levels in vivo in bone tissue, […] male rats are injected with PGE2 (3-6 mg/Kg).

EP2 mRNA in bone tissue = assay: EP2 mRNA in rat bone tissue after systemic administration (Northern blot); type: in vivo; details: rats, 3-6 mg/Kg
Experimental: For mRNA localization experiments, 5-week old Sprague-Dawley rats (Charles River) are euthanized by CO2, their tibiae and calvariae are excised, cleaned of soft tissues and frozen immediately in liquid nitrogen. For EP4 regulation experiments, 6-week old rats are given a single injection of either vehicle (7% ethanol in sterile water) or an anabolic dose of PGE2 (Cayman Chemical, Ann Arbor, Mich.), 3-6 mg/kg in the same vehicle) intraperitoneally. Animals are euthanized at several time points post-injection and their tibiae and calvariae, as well as samples from lung and kidney tissues are frozen in liquid nitrogen. Total RNA is extracted from the tibial metaphysis or diaphysis and calvaria using a guanidinium isothiocyanate-phenol-chloroform method after pulverizing frozen bone samples by a tissue homogenizer. See P. Chomczynski et al., Single-step method of RNA isolation by acid guanidium thiocyanate-phenol-chloroform extraction., Analyt Biochem, 162, 156-159 (1987), which is incorporated by reference herein in its entirety. RNA samples ([…]) are separated on 0.9% agarose/formaldehyde gels and transferred onto nylon membranes (Boehringer Mannheim, Germany). […]

[4] = system: EP4 expression in bone marrow cells; assay: In situ hybridization of EP4 in rat tibia; type: in vivo; details: rats, single anabolic dose, tibial metaphysis
Experimental: For mRNA localization experiments, 5-week old Sprague-Dawley rats (Charles River) are euthanized by CO2, their tibiae and calvariae are excised, cleaned of soft tissues and frozen immediately in liquid nitrogen. For EP4 regulation experiments, 6-week old rats are given a single injection of either vehicle (7% ethanol in sterile water) or an anabolic dose of PGE2 (Cayman Chemical, Ann Arbor, Mich.), 3-6 mg/kg in the same vehicle) intraperitoneally. Animals are euthanized at several time points post-injection and their tibiae and calvariae, as well as samples from lung and kidney tissues are frozen in liquid nitrogen.
Frozen tibiae are sectioned coronally at […] thickness and sections are mounted on charged slides (Probe On Plus, Fisher Scientific, Springfield, N.J.) and are kept at −70° C. until hybridization. cRNA probes are labeled with ^35S-UTPgS (ICN, Costa Mesa, Calif.) using a Riboprobe II kit (Promega Madison, Wis.). Hybridization is performed overnight at 50° C. […]
In situ hybridization is used in order to localize cells expressing EP4 in bone In control experiment (vehicle-injected) rats, low expression of EP4 is detected in bone marrow cells. […]

With CCCCC[C@H](O)/C=C/[C@H]1[C@H](O)CC(=O)[C@@H]1C/C=C\CCCC(=O)O [PGE2, prostaglandin E2] the “effect on intracellular cAMP” value [1] was “no effect”, the “effect on intracellular cAMP” value (RCT-3 cells) was “markedly induced” and the “effect on intracellular cAMP” value (TRAB-11 cells) was “markedly induced”. The “effect on EP4 mRNA levels” value [2] was “rapidly increases”, the “time of peak of EP4 mRNA levels after treatment” value [2] was 2 h and the “effect on EP4 mRNA levels” value (EP4 mRNA in RCT-3 cells) was “no effect”. The “induction of EP2 mRNA” value (EP2 mRNA in RP-1 cells) was “does not induce”, the “effect on EP4 mRNA levels in the tibial diaphysis” value ([3]; rats, 3-6 mg/Kg) was “rapidly increased” and the “time of peak of EP4 mRNA levels in the tibial diaphysis after injection” value ([3]; rats, 3-6 mg/Kg) was 2 h. The “effect on expression of EP4 in tibiae and calvariae” value ([3]; young adult rats, 3-6 mg/kg) was “upregulates”, the “time of peak of EP4 expression in tibiae and calvariae” value ([3]; young adult rats, 3-6 mg/kg) was 1 to 2 h and the “induction of EP2 mRNA in bone tissue” value (EP2 mRNA in bone tissue) was “does not induce”. The “expression of EP4 in bone marrow cells (in situ hybridization)” value [4] was “increasesd the expression”.
